In patent US6979553B2, “Use of Nernstein voltage sensitive dyes in measuring transmembrane voltage” (Caliper Life Sciences, Inc., priority 1999, dated 2005):
Where a name gives a salt, the structure may show the parent alone. Read-outs that look alike come from different tables or passages of the source.

What was measured:
[1] = system: peripheral blood T lymphocytes; assay type: cell-based, human; conditions: for change in DiBAC4(3)/Syto 62 ratio (depolarization): resting T lymphocytes
Description: Resting or mitogen activated peripheral blood T lymphocytes (90% CD3+) were flowed through the chip and mixed with ion channel modulators accessed through the Sipper™ capillary. Average DiBAC4(3)/Syto 62 ratios ±SE (n=2–6) are shown.
Thus, cell based assays of calcium flux and membrane potential were run in the lab-on-a-chip system. A novel approach for measurement of membrane potential was used to detect hyperpolarization and depolarization with high sensitivity. The microfluidic format reduced reagent, sample and cell consumption. As few as 50–200 cells and as little as 10 nl of sample were used per test. […]

THP-1 cells [2] = test: Lab-on-a-chip membrane potential assay, uptake of DiBAC4(3) and Syto 62 by THP-1 cells; assay type: cell-based
Description: The microfluidic technology used in the LabChip® system for this example utilizes microchannels etched into quartz chips coupled with a sampling micropipette that can access samples from microtitre plates. The LabChip® system accesses liquid samples sequentially from a microplate, mixes the samples with cells flowing through a microchannel and reads out cellular responses using fluorescence detection. The system was applied to the measurement of changes in transmembrane potential. […].
As show in FIG. 8, panel A and panel B, the lab-on-a-chip system which was used consisted of quartz chip 801 containing microchannels 803 and 805 connected to Sipper™ capillary 807, robot 809 to move microplate 811, light source 813, optics 815 and fluorescence reader 817, vacuum pump 816, and a computer to control system functions and record data. Light from light source 813 (e.g., mercury arc lamp (470 nm) or an argon ion laser) was focused onto microchip 801 with through optics 815 comprising an objective (10×, 0.3 NA air). Fluorescence was collected with the objective, split into two channels (525 nm and 700 nm) and detected with fluorescence reader 817 which comprises photodiodes. Fluorescence readings were acquired at 20–90 Hz. The three axis robot 809 was used to position microplate 811 so that chip 801 could sample microplate 811, whether in a 96 or 384 well configuration.
A schematic of chip 801 with 90×20 μm channels is shown in FIG. 8, panel B. Flowing cells from cell well 819 were mixed with samples introduced through the Sipper™ capillary 807 (20 μm ID). The flow rate in the detection channel was varied from 2 to 10 nl/s by varying the vacuum applied to waste well 821. Agonists or dyes were added from side well 823. The incubation time in detection channel 803 was varied between 10 and 75 seconds by varying the applied pressure and the location of detector elements (e.g., optics 815) relative to chip 801.
As shown in panel A, the potential sensitive fluorescence signal was derived not from the slow re-equilibration of dyes that were pre-loaded into cells but rather from the rate of uptake of charged, membrane-permeable dyes. Using both an anionic dye, DiBAC4(3), and a cationic dye, Syto 62, yielded a ratiometric measurement with increased sensitivity. Cells were mixed on chip with test samples and dyes stored on the chip. After a short incubation in the detection channel, the fluorescence of individual cells was detected.
As shown in panel B, peaks in green (DiBAC) and red (Syto 62) fluorescence corresponded to THP-1 cells mixed with either buffer, UTP or quinidine sulfate flowing past the detector following a 75 second dye incubation.
As shown in panels C and D, the rate of uptake of DiBAC4(3) (C) and Syto 62 (D) was determined from the average fluorescence peak height as a function of the incubation time for resting cells (∘), cells hyperpolarized with UTP (▪) and cells depolarized with quinidine sulfate (Δ). Compared to resting cells, the rate of increase of DiBAC4(3) peak heights was 48±11% (mean±se, n=5) higher for depolarized cells and 43±5% lower for hyperpolarized cells. Similarly, the rate of increase of the Syto 62 peaks was 7±2% lower for depolarized cells and 37±3% higher for hyperpolarized cells.
As shown in panel A, a calibration curve relating the ratio of DiBAC4(3)/Syto 62 fluorescence (n=20 to 130 cells) to membrane potential was constructed by increasing the K+ conductance of the THP-1 cells and varying the extracellular K+ concentration. […]

THP-1 cells [3] = test: Transmembrane potential assay on Caliper 3B5 microfluidic processor, THP-1 cells; assay type: cell-based; conditions: 50 μM UTP in high sodium buffer, resting approximately −40 mV
Procedure: Changes in the cell transmembrane potential were detected in microfluidic processor by the mixing of cells and the dyes DiBAC4(3) and SYTO62. […] Dye uptake by THP-1 cells was measured on a Caliper® 3B5 microfluidic processor (FIG. 5). One of the long channels of the processor contained THP-1 cells (3×10^6 cells/ml) suspended in high sodium buffer as above, while the other long channel contained 400 nM DiBAC4(3) and 10 μM SYTO62 in high sodium buffer. Transmembrane potential was set to resting potential, hyperpolarization or depolarization by placing either high sodium, 50 μM UTP in high sodium or high potassium buffer in the short arm. Resting, hyperpolarized and depolarized potentials are estimated to be approximately −40, −100 and 0 mV respectively. The microfluidic processor was maintained at room temperature (˜23° C.). DiBAC4(3) and SYTO62 fluorescence was read after the cells had traveled approximately 90 seconds from the junction (ΔP˜1″H2O). Panel A depicts the average fluorescence ratio (DiBAC4(3)/SYTO62) for runs of ˜80 cells each. Error bars are standard error values. As shown in panel B, Histograms show the expected voltage dependent changes in the fluorescence intensities of individual cells as a function of transmembrane potential.

## C[C@H](CCC(=O)O)C[C@H](C)C[C@H](C)C(=O)/C=C(\O)[C@H](C)C[C@H](C)C/C=C/[C@@H](C)[C@@H](O)[C@@H](C)[C@@H](O)C[C@@H]1CC[C@@](C)([C@H]2CC[C@@](C)([C@@H](C)O)O2)O1 [ionomycin]
[1]; mitogen activated T lymphocytes in the presence of ionomycin, compared to resting T lymphocytes, p<0.05
  DiBAC4(3)/Syto 62 ratio (hyperpolarization): lower ratio compared to resting T lymphocytes
[1]; 15 μM
  change in DiBAC4(3)/Syto 62 ratio (depolarization): not

## Clc1ccccc1C(c1ccccc1)(c1ccccc1)n1ccnc1 [clotrimazole]
[1]; mitogen activated T lymphocytes in the presence of ionomycin, 30 μM, p<0.05
  change in DiBAC4(3)/Syto 62 ratio: ratio increases significantly
[1]; 30 μM
  change in DiBAC4(3)/Syto 62 ratio (depolarization): not

## O=c1ccn([C@@H]2O[C@H](COP(=O)(O)OP(=O)(O)OP(=O)(O)O)[C@@H](O)[C@H]2O)c(=O)[nH]1 [UTP]
THP-1 cells [2]; hyperpolarized cells
  rate of increase of DiBAC4(3) peak heights, lower compared to resting cells: 43±5%
  rate of increase of the Syto 62 peaks, higher compared to resting cells: 37±3%
THP-1 cells [3]
  transmembrane potential (hyperpolarized), estimated: ~−100 mV

## C=C[C@H]1C[N@@]2CC[C@H]1C[C@@H]2[C@@H](O)c1ccnc2ccc(OC)cc12 [quinidine sulfate]
THP-1 cells [2]; average±SD, n=3
  change in the average DiBAC4(3)/Syto 62 ratio: dose dependent depolarization
THP-1 cells [2]; depolarized cells
  rate of increase of the Syto 62 peaks, lower compared to resting cells: 7±2%
THP-1 cells [2]; depolarized cells, mean±se, n=5
  rate of increase of DiBAC4(3) peak heights, higher compared to resting cells: 48±11%

## margatoxin (TIINVKCTSPKQCLPPCKAQFGQSAGAKCMNGKCKCYPH; UniProt P40755 1-39, looked up)
[1]; 36 μM, p<0.05
  change in DiBAC4(3)/Syto 62 ratio (depolarization): significant increase in DiBAC4(3)/Syto 62 ratio
